What was measured:
[1] = molecular target: T1, human CB1 receptor (Homo sapiens, UniProt P21554); test: biochemical; format: binding
T1 construct: expressed in transfected cells; host or cells: SK-N-MC cells, stably transfected with pcDNA3 CB-1 (human); semi-purified membrane pellet
Procedure: (§1) Binding Assay for CB1 or CB2 Agonists or Inverse Agonists
(§2) The human CB1 and CB2 receptors were stably expressed in SK-N-MC cells transfected with pcDNA3 CB-1 (human) or pcDNA3 CB-2 (human). The cells were grown in T-180 cell culture flasks under standard cell culture conditions at 37° C. in a 5% CO2 atmosphere. The cells were harvested by trysinization and homogenized in a homogenization buffer (10 mM Tris, 0.2 mM MgCl2, 5 mM KCl, with protease inhibitors aprotinin, leupeptin, pepstatin A and bacitracin) and centrifuged (2000 g). The supernatant was then centrifuged in 2M sucrose (31,300 g) to produce a semi-purified membrane pellet. The pellet was resuspended in homogenization and store at −80° C.
On the day of the assay, the pellet was thawed on ice and diluted in assay buffer (50 mM Tris-HCl, 5 mM MgCl2, 2.5 mM EDTA, 0.5 mg/mL fatty acid free bovine serum albumin, pH 7.5). […] The plate was covered and incubated for 90 minutes at 30° C. The contents were then aspirated onto a Packard […] GF/C filter bottom plate prewet with 0.5% polyethyleneimine. The wells of the polypropylene plate were rinsed and aspirated seven times with a 0.9% saline-0.5% TWEEN 20 solution. The […] plate was dried, a scintillation cocktail was added to each well and the counts representing binding were quantitated in a TOPCOUNT scintillation counter.
(§3) The IC50 binding values for compounds tested were calculated by linear regression and were obtained from studies in which varying compound concentrations were used.

[2] = molecular target: human CB2 receptor (Homo sapiens, UniProt P34972); test: Binding assay, cannabinoid CB2 receptor ([3H]-CP-55,940 displacement); conditions: Cannabinoid CB2 Receptor Binding IC50, human CB2 receptor, SK-N-MC cell membranes, radioligand CP-55,940 0.2 nM
human CB2 receptor, sequence (P34972 whole entry): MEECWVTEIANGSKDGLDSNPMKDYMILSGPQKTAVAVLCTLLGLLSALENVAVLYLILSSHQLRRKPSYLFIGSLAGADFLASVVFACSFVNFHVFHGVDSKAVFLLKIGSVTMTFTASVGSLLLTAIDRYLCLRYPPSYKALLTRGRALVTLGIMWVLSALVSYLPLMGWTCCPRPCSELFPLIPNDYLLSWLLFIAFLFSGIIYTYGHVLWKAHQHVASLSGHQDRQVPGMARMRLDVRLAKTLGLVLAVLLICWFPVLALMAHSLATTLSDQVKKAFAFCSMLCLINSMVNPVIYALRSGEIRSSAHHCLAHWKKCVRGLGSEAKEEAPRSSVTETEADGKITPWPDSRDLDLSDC
Procedure: as §1, §2
On the day of the assay, the pellet was thawed on ice and diluted in assay buffer (50 mM Tris-HCl, 5 mM MgCl2, 2.5 mM EDTA, 0.5 mg/mL fatty acid free bovine serum albumin, pH 7.5). The diluted membrane was added with buffer, test compound or standard and the radioligand [H]^3+-CP-55,940_(0.2 nM) to the wells of a 96-well polypropylene plate. Non-specific binding was measured in wells containing 10 uM WIN 55,212. The plate was covered and incubated for 90 minutes at 30° C. The contents were then aspirated onto a Packard UNIFILTER GF/C filter bottom plate prewet with 0.5% polyethyleneimine. The wells of the polypropylene plate were rinsed and aspirated seven times with a 0.9% saline-0.5% TWEEN 20 solution. The UNIFILTER plate was dried, a scintillation cocktail was added to each well and the counts representing binding were quantitated in a TOPCOUNT scintillation counter.
as §3

T1 sequence (P21554 whole entry): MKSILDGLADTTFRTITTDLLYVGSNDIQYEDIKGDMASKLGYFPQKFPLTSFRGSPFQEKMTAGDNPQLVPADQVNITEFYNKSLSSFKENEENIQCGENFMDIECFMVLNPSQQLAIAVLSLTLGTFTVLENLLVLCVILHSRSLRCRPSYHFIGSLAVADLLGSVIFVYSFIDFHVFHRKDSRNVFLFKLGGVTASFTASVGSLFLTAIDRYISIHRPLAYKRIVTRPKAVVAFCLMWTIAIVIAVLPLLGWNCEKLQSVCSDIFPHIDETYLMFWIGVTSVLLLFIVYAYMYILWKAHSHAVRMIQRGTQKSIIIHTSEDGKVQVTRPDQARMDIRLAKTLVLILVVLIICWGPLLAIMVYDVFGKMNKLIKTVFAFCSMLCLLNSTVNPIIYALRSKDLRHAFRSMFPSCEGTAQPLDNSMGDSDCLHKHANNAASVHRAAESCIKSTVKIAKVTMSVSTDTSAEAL

Row | Structure (SMILES) | IC50 [1] | IC50 [2]
1 | C[C@H](C1CCCCC1)N(C)C(=O)c1nn(C2CCCCC2)c2c1CCCC2 [Cpd 328, 1-cyclohexyl-4,5,6,7-tetrahydro-1H-indazole-3-carboxylic acid [(1R)-1-cyclohexyl-ethyl]-methylamide] | 5100 nM | 1600 nM
2 | O=C(NC(c1ccccc1)C1CCCCC1)c1nn(C2CCCCC2)c2c1CCCC2 (stereo not drawn) [Cpd 331, 1-cyclohexyl-4,5,6,7-tetrahydro-1H-indazole-3-carboxylic acid (cyclohexyl-phenyl)methylamide] | 3000 nM | 98 nM
3 | CCOC(=O)C(Cc1nn(C2CCCCC2)c2c1CCCC2)c1ccccc1OC (stereo not drawn) [Cpd 332, 3-(1-cyclohexyl-4,5,6,7-tetrahydro-1H-indazol-3-yl)-2-(2-methoxy-phenyl)-propionic acid ethyl ester] | 3900 nM | 1900 nM
4 | COc1ccccc1C(Cc1nn(C2CCCCC2)c2c1CCCC2)C(=O)NC1C2(C)CCC(C2)C1(C)C (stereo not drawn) [Cpd 333, 3-(1-cyclohexyl-4,5,6,7-tetrahydro-1H-indazol-3-yl)-2-(2-methoxy-phenyl)-N-(1,3,3-trimethyl-bicyclo[2.2.1]hept-2-yl)-propionamide] | 5700 nM | 2900 nM
5 | COC(=O)C(Cc1ccc(O)cc1)NC(=O)c1nn(-c2ccc(OC)cc2)c2c1CCCC2 (stereo not drawn) [compound 5] | 6800 nM | 291 nM
6 | COC(=O)C(Cc1ccc(O)cc1)NC(=O)c1c2c(nn1-c1ccc(OC)cc1)CCCC2 (stereo not drawn) [compound 6] | 6750 nM | 367 nM
7 | Cc1ccc(-n2nc(C(=O)NC3C4(C)CCC(C4)C3(C)C)c3c2CCCC3)cc1 (stereo not drawn) [compound 11] | 285 nM | 40.6 nM
8 | CC12CCC(C1)C(C)(C)C2NC(=O)c1nn(-c2ccc(Cl)cc2)c2c1CCCC2 (stereo not drawn) [compound 12] | 148 nM | 21.4 nM
9 | O=C(NC1CCCCCCC1)c1nn(-c2ccc(F)cc2)c2c1CCCC2 [compound 15] | 241 nM | 53.8 nM
10 | CC12CCC(C1)C(C)(C)C2NC(=O)c1nn(-c2ccccc2F)c2c1CCCC2 (stereo not drawn) [compound 16] | 185 nM | 5.4 nM
11 | O=C(NC1CC2CCC1C2)c1nn(-c2ccc(F)cc2)c2c1CCCC2 (stereo not drawn) [compound 20] | 169 nM | 35.2 nM
12 | CC1(C)C2CCC1(C)C(NC(=O)c1nn(-c3ccc(F)cc3)c3c1CCCC3)C2 (stereo not drawn) [compound 21] | 44 nM | 11 nM
13 | CC(NC(=O)c1nn(-c2ccc(F)cc2)c2c1CCCC2)C1C2CC3CC(C2)CC1C3 (stereo not drawn) [compound 22] | 1030 nM | 143 nM
14 | CCOC(=O)C1C2CCC(C2)C1NC(=O)c1nn(-c2ccc(F)cc2)c2c1CCCC2 (stereo not drawn) [compound 23] | 1800 nM | 100 nM
15 | CC12CCC(C1)C(C)(C)C2NC(=O)c1nn(-c2ccc(F)cc2)c2c1CCCC2C1CCCCC1 (stereo not drawn) [compound 24] | 3810 nM | 6820 nM
16 | CC1(C)C2CCC1(C)C(NC(=O)c1nn(C3CCCCC3)c3c1CCCC3)C2 (stereo not drawn) [compound 25] | 75.3 nM | 1.6 nM
17 | O=C(NNC1CCCCC1)c1nn(Cc2ccccc2)c2c1CCCC2 [compound 29] | 790 nM | 115 nM
18 | O=C(NNC1CCCCC1)c1nn(-c2ccc(F)cc2)c2c1CCCC2 [compound 30] | 7890 nM | 1470 nM
19 | O=C(NNC1CCCCC1)c1nn(C2CCCCC2)c2c1CCCC2 [compound 31] | 1690 nM | 195 nM
20 | CCOC(=O)[C@@H]1CCCC[C@H]1NC(=O)c1nn(-c2ccc(F)cc2)c2c1CCCC2 [compound 34] | 136 nM | 40.9 nM
21 | CC(NC(=O)c1nn(Cc2ccccc2)c2c1CCCC2)C12CC3CC(CC(C3)C1)C2 (stereo not drawn) [compound 39] | 9 nM | 6 nM
22 | O=C(NN1CCCCCC1)c1nn(Cc2ccccc2)c2c1CCCC2 [compound 41] | 49 nM | 34.8 nM
23 | CCOC(=O)C1C2CCC(C2)C1NC(=O)c1c2c(nn1Cc1ccccc1)CCCC2 (stereo not drawn) [compound 42] | 10700 nM | 640 nM
24 | O=C(NC1C2CC3CC(C2)CC1C3)c1nn(C2CCCCC2)c2c1CCCC2 (stereo not drawn) [compound 45] | 40 nM | 5.6 nM
25 | O=C(N[C@@H]1CCCC[C@@H]1CO)c1nn(C2CCCCC2)c2c1CCCC2 [compound 48] | 249 nM | 55.3 nM
26 | O=C(N[C@@H]1CCCC[C@H]1CO)c1nn(C2CCCCC2)c2c1CCCC2 [compound 49] | 150 nM | 72.8 nM

Row | Structure (SMILES) | IC50 [1] | IC50 [2]
27 | O=C(CCc1nn(C2CCCCC2)c2c1CCCC2)N[C@@H]1CCCC[C@H]1CO [compound 51] | 15200 nM | 8420 nM
28 | O=C(CCc1nn(C2CCCCC2)c2c1CCCC2)N[C@@H]1C2CCC(C2)[C@@H]1CO (stereo partly drawn) [compound 52] | 6260 nM | 4900 nM
29 | CC(NC(=O)CCc1nn(C2CCCCC2)c2c1CCCC2)C12CC3CC(CC(C3)C1)C2 (stereo not drawn) [compound 53] | 6120 nM | 230 nM
30 | CCOC(=O)[C@H]1C2CCC(C2)[C@H]1NC(=O)CCc1nn(C2CCCCC2)c2c1CCCC2 (stereo partly drawn) [compound 54] | 11400 nM | 6050 nM
31 | CCOC(=O)C1=C(NC(=O)c2nn(C3CCCCC3)c3c2CCCC3)CCC1 [compound 57] | 10900 nM | 2200 nM
32 | CCOC(=O)[C@H]1CCC[C@H]1NC(=O)c1nn(C2CCCCC2)c2c1CCCC2 [compound 58] | 736 nM | 170 nM
33 | CCOC(=O)[C@H]1CCCC[C@@H]1NC(=O)c1nn(C2CCCCC2)c2c1CCCC2 [compound 59] | 340 nM | 70 nM
34 | CCOC(=O)[C@@H]1CCC[C@@H]1NC(=O)c1nn(C2CCCCC2)c2c1CCCC2Cl (stereo partly drawn) [compound 61] | 2190 nM | 190 nM
35 | CCOC(=O)[C@H]1C2CCC(C2)[C@H]1NC(=O)c1nn(C2CCCCC2)c2c1CCCC2Cl (stereo partly drawn) [compound 63] | 13700 nM | 3300 nM
36 | CC(NC(=O)c1nn(C2CCCCC2)c2c1CCCC2Cl)C12CC3CC(CC(C3)C1)C2 (stereo not drawn) [compound 64] | 410 nM | 30 nM
37 | CCOC(=O)C1CCc2c(C(=O)NC3C4CC5CC(C4)CC3C5)nn(C3CCCCC3)c2C1 (stereo not drawn) [compound 68] | 463 nM | 57 nM
38 | CCOC(=O)C1CCc2c(C(=O)NC(C)C34CC5CC(CC(C5)C3)C4)nn(C3CCCCC3)c2C1 (stereo not drawn) [compound 69] | 220 nM | 2.7 nM
39 | CCOC(=O)C1CCCc2c1c(C(=O)NC1C3CC4CC(C3)CC1C4)nn2C1CCCCC1 (stereo not drawn) [compound 71] | 530 nM | 500 nM
40 | CCOC(=O)C1CCCc2c1c(C(=O)NC(C)C13CC4CC(CC(C4)C1)C3)nn2C1CCCCC1 (stereo not drawn) [compound 72] | 8400 nM | 4100 nM
41 | CC12CCC(C1)C(C)(C)C2NC(=O)c1nn(C2CCCCCC2)c2c1CCCC2 (stereo not drawn) [compound 74] | 15 nM | 1.4 nM
42 | COC(=O)C(Cc1ccc(O)cc1)NC(=O)c1nn(C2CCCCC2)c2c1CCCC2 (stereo not drawn) [compound 77] | 52 nM | 3 nM
43 | O=C(NC(Cc1ccc(OCc2ccccc2)cc1)C(=O)O)c1nn(C2CCCCC2)c2c1CCCC2 (stereo not drawn) [compound 78] | 4600 nM | 1210 nM
44 | O=C(NC1C2CC3CC(C2)CC1C3)c1nn(C2CCCCC2)c2c1CC(C(=O)OCc1ccccc1)CC2 (stereo not drawn) [compound 79] | 30 nM | 10 nM
45 | COC(=O)C(Cc1ccc(OCc2ccccc2)cc1)NC(=O)c1nn(Cc2ccccc2)c2c1CCCC2 (stereo not drawn) [compound 80] | 230 nM | 170 nM
46 | COC(=O)C(Cc1ccc(OCc2ccccc2)cc1)NC(=O)c1nn(C2CCCCC2)c2c1CCCC2 (stereo not drawn) [compound 81] | 490 nM | 20 nM
47 | COC(=O)C(Cc1ccc(O)c(O)c1)NC(=O)c1nn(Cc2ccccc2)c2c1CCCC2 (stereo not drawn) [compound 82] | 700 nM | 200 nM
48 | COC(=O)C(Cc1c[nH]c2ccccc12)NC(=O)c1nn(Cc2ccccc2)c2c1CCCC2 (stereo not drawn) [compound 83] | 38 nM | 20 nM
49 | CC(C)(C)OC(=O)NC1CCc2c(c(C(=O)NC3C4CC5CC(C4)CC3C5)nn2C2CCCCC2)C1 (stereo not drawn) [compound 85] | 600 nM | 82 nM
50 | COC(=O)NC1CCc2c(c(C(=O)NC3C4CC5CC(C4)CC3C5)nn2C2CCCCC2)C1 (stereo not drawn) [compound 88] | 2400 nM | 87 nM
51 | O=C(NC1C2CC3CC(C2)CC1C3)c1nn(C2CCCCC2)c2c1CC(NC(=O)N1CCOCC1)CC2 (stereo not drawn) [compound 90] | 1840 nM | 1120 nM

Reference: patent US7452997B2 (priority 2004, dated 2008)
